# “And” between values parts separate entries of the source, which are not always exact repeats. Identical values can stand only once. Toxic doses and inconclusive results are not listed.
# System: P388 leukemia ip, CD2F1 mice, survival T/C
# Experiment: NCI In Vivo Anticancer Drug Screen. Data for tumor model P388 Leukemia (intraperitoneal) in CD2F1 (CDF1) mice
# Details: endpoint: median survival time, higher = longer survival
# In short: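 Mice carrying the transplanted tumor received test compound or vehicle. Survival was recorded in each group, and the value is the treated-group measurement divided by that of the vehicle-treated control group.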
# [1] = dose: 60.0 mg/kg/injection, schedule: Q01DX005 (ip), vehicle: saline with Tween-80
# [2] = dose: 50.0 mg/kg/injection, schedule: Q01DX005 (ip), vehicle: saline with Tween-80
# [3] = dose: 100.0 mg/kg/injection, schedule: Q01DX005 (ip), vehicle: saline with Tween-80
# [4] = dose: 200.0 mg/kg/injection, schedule: Q01DX005 (ip), vehicle: saline with Tween-80
# [5] = dose: 100.0 mg/kg/injection, schedule: Q01DX001 (ip), vehicle: saline with Tween-80
# [6] = dose: 200.0 mg/kg/injection, schedule: Q01DX001 (ip), vehicle: saline with Tween-80
# [7] = dose: 50.0 mg/kg/injection, schedule: Q01DX009 (ip), vehicle: saline
# [8] = dose: 100.0 mg/kg/injection, schedule: Q01DX009 (ip), vehicle: saline
# [9] = dose: 200.0 mg/kg/injection, schedule: Q01DX009 (ip), vehicle: saline
# [10] = dose: 120.0 mg/kg/injection, schedule: Q01DX005 (ip), vehicle: saline with Tween-80
# [11] = dose: 240.0 mg/kg/injection, schedule: Q01DX005 (ip), vehicle: saline with Tween-80
# [12] = dose: 25.0 mg/kg/injection, schedule: Q01DX009 (ip), vehicle: saline
smiles,measurement,setting,value
CCN(CC)CCCC(C)Nc1c2ccc(Cl)cc2nc2ccc(OC)cc12 (centres undefined),T/C,"dose: 3.0 mg/kg/injection, schedule: Q03HX024 (ip), vehicle: saline with Tween-80",108 % of control
same,T/C,"dose: 4.0 mg/kg/injection, schedule: Q01DX009 (ip), vehicle: suspension in saline",104 % of control
same,T/C,"dose: 4.0 mg/kg/injection, schedule: Q#A X018 (ip), vehicle: saline with Tween-80",97 % of control
same,T/C,"dose: 6.0 mg/kg/injection, schedule: Q03HX024 (ip), vehicle: saline with Tween-80",93 % of control
same,T/C,"dose: 8.0 mg/kg/injection, schedule: Q01DX009 (ip), vehicle: saline with Tween-80",104 % of control and 105 % of control
same,T/C,"dose: 8.0 mg/kg/injection, schedule: Q01DX009 (ip), vehicle: suspension in saline",110 % of control
same,T/C,"dose: 8.0 mg/kg/injection, schedule: Q#A X018 (ip), vehicle: saline with Tween-80",87 % of control
same,T/C,"dose: 16.0 mg/kg/injection, schedule: Q01DX009 (ip), vehicle: saline with Tween-80",106 % of control and 120 % of control
same,T/C,"dose: 16.0 mg/kg/injection, schedule: Q01DX009 (ip), vehicle: suspension in saline",108 % of control
same,T/C,"dose: 16.0 mg/kg/injection, schedule: Q#A X018 (ip), vehicle: saline with Tween-80",91 % of control
same,T/C,"dose: 20.0 mg/kg/injection, schedule: Q04DX003 (ip), vehicle: saline with Tween-80",100 % of control
same,T/C,"dose: 24.0 mg/kg/injection, schedule: Q03HX024 (ip), vehicle: saline with Tween-80",108 % of control
same,T/C,"dose: 24.0 mg/kg/injection, schedule: Q04DX003 (ip), vehicle: saline with Tween-80",97 % of control
same,T/C,"dose: 32.0 mg/kg/injection, schedule: Q01DX009 (ip), vehicle: saline with Tween-80",117 % of control
same,T/C,"dose: 32.0 mg/kg/injection, schedule: Q01DX009 (ip), vehicle: suspension in saline",113 % of control
same,T/C,"dose: 32.0 mg/kg/injection, schedule: Q#A X018 (ip), vehicle: saline with Tween-80",104 % of control
same,T/C,"dose: 40.0 mg/kg/injection, schedule: Q04DX003 (ip), vehicle: saline with Tween-80",100 % of control
same,T/C,"dose: 48.0 mg/kg/injection, schedule: Q04DX003 (ip), vehicle: saline with Tween-80",97 % of control
same,T/C,"dose: 64.0 mg/kg/injection, schedule: Q01DX009 (ip), vehicle: suspension in saline",113 % of control
same,T/C,"dose: 71.0 mg/kg/injection, schedule: Q01DX001 (ip), vehicle: saline with Tween-80",106 % of control
same,T/C,"dose: 80.0 mg/kg/injection, schedule: Q04DX003 (ip), vehicle: saline with Tween-80",108 % of control
same,T/C,"dose: 96.0 mg/kg/injection, schedule: Q04DX003 (ip), vehicle: saline with Tween-80",106 % of control
same,T/C,"dose: 128.0 mg/kg/injection, schedule: Q01DX009 (ip), vehicle: saline with Tween-80",98 % of control
same,T/C,"dose: 128.0 mg/kg/injection, schedule: Q01DX009 (ip), vehicle: suspension in saline",91 % of control
same,T/C,"dose: 143.0 mg/kg/injection, schedule: Q01DX001 (ip), vehicle: saline with Tween-80",113 % of control
CN(C)c1ccc(C2c3c(oc4ccccc4c3=O)Oc3oc4ccccc4c(=O)c32)cc1,T/C,"dose: 15.0 mg/kg/injection, schedule: Q01DX005 (ip), vehicle: saline with Tween-80",98 % of control
same,T/C,"dose: 30.0 mg/kg/injection, schedule: Q01DX005 (ip), vehicle: saline with Tween-80",100 % of control
same,T/C,[1],89 % of control
CC(C)(C)OC(=O)n1cnc(CC(NC(=O)OCc2ccccc2)C(=O)O)c1 (centres undefined),T/C,[2],105 % of control
same,T/C,[3],100 % of control
same,T/C,[4],106 % of control
c1ccc(C23CN(Cc4ccccc42)Cc2ccccc23)cc1,T/C,[5],95 % of control
same,T/C,[6],88 % of control
C(=N\NC1=NCCN1)/c1c[nH]c2ccccc12,T/C,[2],101 % of control
same,T/C,[3],97 % of control
OCCN(CCO)Cc1cccc2ccccc12,T/C,[2],94 % of control
same,T/C,[3],94 % of control
C=CC(=NC(C)(C)C)Nc1cccc(Cl)c1,T/C,"dose: 6.25 mg/kg/injection, schedule: Q04DX003 (ip), vehicle: saline",98 % of control
same,T/C,"dose: 12.5 mg/kg/injection, schedule: Q04DX003 (ip), vehicle: saline",102 % of control
same,T/C,"dose: 25.0 mg/kg/injection, schedule: Q04DX003 (ip), vehicle: saline",100 % of control
COCC(=O)c1ccc([N+](=O)[O-])cc1,T/C,[7],98 % of control
same,T/C,[8],103 % of control and 104 % of control
same,T/C,[9],105 % of control and 111 % of control
N#CC(NCCNC(C#N)c1ccccc1)c1ccccc1 (centres undefined),T/C,[1],96 % of control
same,T/C,[10],90 % of control
same,T/C,[11],88 % of control
COc1cc2c(cc1OC)-c1cccc3c1N(CC2)CC3,T/C,"dose: 25.0 mg/kg/injection, schedule: Q04DX002 (ip), vehicle: saline with Tween-80",100 % of control
same,T/C,"dose: 50.0 mg/kg/injection, schedule: Q04DX002 (ip), vehicle: saline with Tween-80",98 % of control
same,T/C,"dose: 100.0 mg/kg/injection, schedule: Q04DX002 (ip), vehicle: saline with Tween-80",100 % of control
CCO/C=C1/N=C(Cc2ccc(Br)cc2)OC1=O,T/C,[1],94 % of control
same,T/C,[10],90 % of control
CCNc1nncs1,T/C,[12],113 % of control
same,T/C,[8],161 % of control
same,T/C,"dose: 125.0 mg/kg/injection, schedule: Q01DX009 (ip), vehicle: saline",162 % of control
CS(=O)(=O)NC(=O)NC(=S)c1ccc(Br)cc1,T/C,[5],103 % of control
same,T/C,[6],101 % of control
same,T/C,"dose: 400.0 mg/kg/injection, schedule: Q01DX001 (ip), vehicle: saline with Tween-80",107 % of control
COc1cc(C(Nc2ncccn2)c2cc3c(cc2OC(C)=O)OCO3)cc(OC)c1OC(C)=O (centres undefined),T/C,[1],105 % of control
same,T/C,[10],100 % of control
same,T/C,[11],99 % of control
C=C1C(=O)OC2C=C(C)CC3C=C(CCC=C(C)CCC12)C(=O)O3 (centres undefined),T/C,"dose: 50.0 mg/kg/injection, schedule: Q04DX003 (ip), vehicle: saline with Tween-80",102 % of control
same,T/C,"dose: 100.0 mg/kg/injection, schedule: Q04DX003 (ip), vehicle: saline with Tween-80",104 % of control
same,T/C,"dose: 200.0 mg/kg/injection, schedule: Q04DX003 (ip), vehicle: saline with Tween-80",115 % of control
Cc1ccc(-n2nc(C)cc2C)nn1,T/C,[7],99 % of control
same,T/C,[8],101 % of control
CC(=O)c1c(O)c2ccccc2c2nc3ccccc3nc12,T/C,[7],96 % of control
same,T/C,[8],91 % of control
same,T/C,[9],91 % of control
[Cl][Hg][Cl],T/C,"dose: 0.94 mg/kg/injection, schedule: Q01DX005 (ip), vehicle: saline",95 % of control
same,T/C,"dose: 1.88 mg/kg/injection, schedule: Q01DX005 (ip), vehicle: saline",101 % of control
O=S(=O)(O)SCCN1CCCC1,T/C,"dose: 12.5 mg/kg/injection, schedule: Q01DX009 (ip), vehicle: saline",105 % of control
same,T/C,[12],110 % of control
same,T/C,[7],110 % of control
CCNC(=S)N/N=C\C=N/NC(=S)NCC,T/C,"dose: 75.0 mg/kg/injection, schedule: Q01DX009 (ip), vehicle: saline with Tween-80",105 % of control
same,T/C,"dose: 150.0 mg/kg/injection, schedule: Q01DX009 (ip), vehicle: saline with Tween-80",92 % of control
same,T/C,"dose: 300.0 mg/kg/injection, schedule: Q01DX009 (ip), vehicle: saline with Tween-80",103 % of control
COC1C(c2cc3ccccc3oc2=O)OC2OC(C)(C)OC21 (centres undefined),T/C,"dose: 5.0 mg/kg/injection, schedule: Q01DX001 (ip), vehicle: Klucel (hydroxypropylcellulose) (HPC)",97 % of control
same,T/C,"dose: 10.0 mg/kg/injection, schedule: Q01DX001 (ip), vehicle: Klucel (hydroxypropylcellulose) (HPC)",101 % of control
same,T/C,"dose: 20.0 mg/kg/injection, schedule: Q01DX001 (ip), vehicle: Klucel (hydroxypropylcellulose) (HPC)",100 % of control
O=C(NNc1ccc([N+](=O)[O-])cc1[N+](=O)[O-])Nc1cccc(Cl)c1,T/C,"dose: 50.0 mg/kg/injection, schedule: Q01DX009 (ip), vehicle: saline with Tween-80",91 % of control
same,T/C,"dose: 100.0 mg/kg/injection, schedule: Q01DX009 (ip), vehicle: saline with Tween-80",99 % of control
same,T/C,"dose: 200.0 mg/kg/injection, schedule: Q01DX009 (ip), vehicle: saline with Tween-80",102 % of control
Cc1ccc(Nc2ccc(Nc3ccc(C)cc3)c3c2C(=O)c2cc(Cl)c(Cl)cc2C3=O)cc1,T/C,"dose: 50.0 mg/kg/injection, schedule: Q01DX009 (ip), vehicle: Klucel (hydroxypropylcellulose) (HPC)",101 % of control and 93 % of control and 95 % of control
same,T/C,"dose: 100.0 mg/kg/injection, schedule: Q01DX009 (ip), vehicle: Klucel (hydroxypropylcellulose) (HPC)",111 % of control and 89 % of control and 96 % of control
same,T/C,"dose: 200.0 mg/kg/injection, schedule: Q01DX009 (ip), vehicle: Klucel (hydroxypropylcellulose) (HPC)",103 % of control and 105 % of control
same,T/C,"dose: 400.0 mg/kg/injection, schedule: Q01DX009 (ip), vehicle: Klucel (hydroxypropylcellulose) (HPC)",98 % of control
Cc1nnc2cc3ccccc3cn12,T/C,[2],89 % of control
same,T/C,[3],97 % of control
same,T/C,[4],100 % of control

# Source: PubChem BioAssay AID330 (DTP/NCI, 2004)
